Experimental data taken from US20210317090A1, “AMINO ACID DEPLETION AGENTS AS ANTIPROLIFERATIVE AGENTS” (University of Central Florida Research Foundation, Inc., priority 2018, published 2021).

Columns and labels:
[1] = system: polyamine transport system (PTS); conditions: CHO vs CHO-MG (ref 17); cited from earlier work
[2] = system: L3.6pl human pancreatic cancer cells; test: Cytotoxicity dose-response (MTS) in L3.6pl cells; assay type: cell-based; conditions: L3.6pl cells, previously determined; read-out: 72 h IC50
Description: L3.6pl Studies. Compounds 9 and 10 were evaluated in the metastatic human pancreatic cancer cell line, L3.6pl. L3.6pl has a K-ras mutation, and high polyamine uptake activity.^7 A dose-response curve was obtained for each compound in L3.6pl cells to determine the 72 h L3.6pl IC50 value, described as the dose at which L3.6pl cells were 50% viable compared to the untreated control.
Regarding the biological studies performed in the following examples, it is noted that CHO K1, CHO-MG, and L3.6pl cells were grown in RPMI 1640 medium supplemented with 10% fetal bovine serum (FBS) and 1% penicillin/streptomycin. All cells were grown at 37° C. under a humidified 5% CO2 atmosphere. Aminoguanidine (1 mM used for CHO K1 and CHOMG cells and 250 μM for L3.6pl) was added to the growth medium to prevent oxidation of the compounds of the bovine serum amine oxidase enzyme that is present in calf serum. The cells used were in early to mid log phase and CHO and CHOMG were plated out at 1000 cells/well, whereas the L3.6pl cells were plated at 500 cells/well in a 96 well plate format.
This example illustrates aspects according to various embodiments pertaining to IC50 determinations and cell viability studies. Cell growth was assayed in sterile 96-well microtiter plates (Costar 3599, Corning, N.Y.). CHO K1 or CHOMG cells were plated at 1,000 cells/70 μL and L3.6pl cells at 500 cells/70 μL. The drug solutions of appropriate concentration in phosphate buffered saline (PBS) were added 10 μL per well after overnight incubation. After drug exposure (e.g., for 48 h for CHO K1 and CHO-MG and 48 h or 72 h for L3.6pl), cell growth was determined by measuring formazan formation from the 3-(4,5dimethylthiazol-2-yl)-5-(3-carboxymethoxyphenyl)-2-(4-sulfenyl)-2H tetrazolium, inner salt (MTS) using SynergyMx Biotek microplate reader for absorbance (490 nm) measurements.^27 All experiments were run in triplicate.

L3.6pl cells [3] = test: Intracellular polyamine and Ant-44 levels (N-dansylation, HPLC) in L3.6pl cells; assay type: cell-based, human; conditions: Ant-44 only control (2 μM), 72 h
Description: One explanation for the enhanced potency was that compound 10 (1666.255) increased polyamine import and, as a result, may have increased intracellular Ant-44 levels. To test this hypothesis, L3.6pl cells were dosed with a fixed concentration of Ant-44 (2 μM) alone and in combination with increasing concentrations of compound 10 (1666.255) to explore how this combination therapy affected intracellular polyamine pools and Ant-44 import.
FIG. 7 is an example according to various embodiments, illustrating both single and combination therapies in L3.6pl cells with Ant-44 and compound 10 (1666.255) after 72 h incubation. Polyamine and Ant-44 levels (expressed as nmoles/mg protein) and relative % viability versus an untreated control were observed after 72 h incubation at 37° C. The untreated control was run in parallel and polyamine levels determined in duplicate and % cell viability in triplicate. Ant-44 was dosed at a fixed concentration of 2 μM and compound 10 (1666.255) at increasing concentrations. Cell viability tracked well with total intracellular polyamine levels (sum of putrescine, spermidine and spermine).
It was concluded that compound 10 was neither acting as a PTI nor as a polyamine import agonist. How then could it lead to intracellular polyamine depletion? […] To test this hypothesis, L3.6pl cells were dosed with increasing concentrations of compound 10 (1666.255) without Ant44. If compound 10 (1666.255) was acting on polyamine pools, one should see a reduction in total polyamine levels as well as decreased cell viability in a dose dependent manner upon increasing levels of 10. Therefore, the toxicity of compound 10 and intracellular polyamine levels after 72 h exposure to 10 were measured (FIG. 8).
FIG. 8 is an example according to various embodiments, illustrating intracellular polyamine levels (expressed as nmoles polyamine/mg protein) in L3.6pl cells dosed with increasing concentrations of compound 10 (1666.255) after cells were incubated for 72 h at 37° C. The untreated control was run in parallel and polyamine levels determined in duplicate via N-dansylation and HPLC. The data was averaged and reported as nmol polyamine (PA)/mg protein.
This example illustrates aspects according to various embodiments pertaining to a 72 h experiment with Compound 10 in L3.6pl cells. Ten milliliters of a cell suspension containing L3.6pl human pancreatic cancer cells (50,000 cells/mL) and aminoguanidine (1 mM) were placed in treated plastic Petri dishes (d=9 cm) and incubated overnight at 37° C. After 24 h, the cells were dosed with compound 10 at 2 μM, 5 μM, or 7 μM. (Note: Stock solutions of 10 at 2, 5, and 7 mM were dissolved in phosphate buffered saline (PBS) and were filtered through a 0.2 μm filter prior to use. The experiments were maintained with a total volume of 10.01 mL where 10 mL of the cell suspension was placed in a plastic dish and each compound or the equivalent PBS volume was added to make up the total volume 10.01 mL for each dish. For example, for the control experiment PBS (10 μL) was added to make up the total volume (10 mL+10 μL=10.01 mL). After 72 h incubation, the cells were collected first by pipetting off the supernatant containing floating dead cells from the culture dish as well as media and placing them into 15 mL tubes. The supernatant containing floating cells was centrifuged (4 min at 1,000 rpm). The cell-free supernatant (supernatant #1) was collected into a new 15 mL tube and quantified (˜8.6 mL) and was then stored frozen and was later quantified by LCMS to investigate the media composition of particular polyamine and amino acid analytes. The attached cells on the dish were washed with PBS (5 mL). The PBS wash was removed by suction and additional PBS (2 mL) was added and again suctioned off to provide twice-washed cells still adhered to the dish. Trypsin (2 mL) was then added to each dish and incubated (3-5 min) until all the cells were detached. Fresh media (8 mL) was added to quench the trypsin. […]

L3.6pl cells [4] = conditions: CDAP 100 μM (ref 10); cited from earlier work
[5] = system: L3.6pl human pancreatic cancer cells; conditions: L3.6pl cells, CDAP 100 μM (ref 10); cited from earlier work

Cl.NCCCCNCCCCNCc1c2ccccc2cc2ccccc12 [Ant-44, reference compound]
preference for CHO cell line over CHO-MG (IC50 comparison) [1]: ~150 fold | IC50 [2]: 4 µM | intracellular level of Ant-44 (L3.6pl cells [3]): 2.15±0.10 nmol Ant44/mg protein

NCCCNC1CCCCC1 [CDAP, N-(3-aminopropyl)-cyclohexylamine]
Intracellular Spermine (L3.6pl cells [4]): no detectable spermine | viability [5]: 100%
